According to PubChem BioAssay AID256 (DTP/NCI, 2004):
Values joined by “and” are separate entries in the source; they are usually repeats but may differ in a detail not shown here. Equal values may be shown once. Inconclusive results and toxic doses are left out.

System: CD2F1 mice, L1210 leukemia ip, survival T/C
Assay: NCI In Vivo Anticancer Drug Screen. Data for tumor model L1210 Leukemia (intraperitoneal) in CD2F1 (CDF1) mice
Details: higher = longer survival
Method in brief: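 Read-out first: treated-group measurement over vehicle-control measurement, expressed as a ratio. Animals bore a transplanted tumor line and were dosed with compound or vehicle.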

[1] = endpoint: mean survival time, dose: 100.0 mg/kg/injection, schedule: Q04DX003 (ip), vehicle: saline with Tween-80
[2] = endpoint: mean survival time, dose: 200.0 mg/kg/injection, schedule: Q04DX003 (ip), vehicle: saline with Tween-80
[3] = endpoint: mean survival time, dose: 400.0 mg/kg/injection, schedule: Q04DX003 (ip), vehicle: saline with Tween-80
[4] = endpoint: mean survival time, dose: 100.0 mg/kg/injection, schedule: Q01DX009 (ip), vehicle: saline with Tween-80
[5] = endpoint: mean survival time, dose: 200.0 mg/kg/injection, schedule: Q01DX009 (ip), vehicle: saline with Tween-80
[6] = endpoint: mean survival time, dose: 400.0 mg/kg/injection, schedule: Q01DX009 (ip), vehicle: saline with Tween-80
[7] = endpoint: mean survival time, dose: 100.0 mg/kg/injection, schedule: Q04DX003 (ip), vehicle: saline
[8] = endpoint: mean survival time, dose: 200.0 mg/kg/injection, schedule: Q04DX003 (ip), vehicle: saline
[9] = endpoint: mean survival time, dose: 400.0 mg/kg/injection, schedule: Q04DX003 (ip), vehicle: saline

## O=NN(CCCl)C(=O)Nc1ccc(CCO)cc1
endpoint: mean survival time, dose: 0.31 mg/kg/injection, schedule: Q01DX001 (ip), vehicle: other
  T/C: 103 % of control
endpoint: mean survival time, dose: 0.62 mg/kg/injection, schedule: Q01DX001 (ip), vehicle: other
  T/C: 97 % of control
endpoint: mean survival time, dose: 1.25 mg/kg/injection, schedule: Q01DX001 (ip), vehicle: other
  T/C: 105 % of control
endpoint: mean survival time, dose: 2.03 mg/kg/injection, schedule: Q01DX009 (ip), vehicle: acetone
  T/C: 205 % of control
endpoint: mean survival time, dose: 2.5 mg/kg/injection, schedule: Q01DX001 (ip), vehicle: other
  T/C: 120 % of control
endpoint: mean survival time, dose: 3.08 mg/kg/injection, schedule: Q01DX009 (ip), vehicle: saline with Tween-80
  T/C: 203 % of control
endpoint: mean survival time, dose: 4.62 mg/kg/injection, schedule: Q01DX009 (ip), vehicle: saline with Tween-80
  T/C: 300 % of control
endpoint: mean survival time, dose: 9.75 mg/kg/injection, schedule: Q01DX001 (ip), vehicle: other
  T/C: 277 % of control
endpoint: mean survival time, dose: 19.5 mg/kg/injection, schedule: Q01DX001 (ip), vehicle: other
  T/C: 361 % of control
endpoint: mean survival time, dose: 39.0 mg/kg/injection, schedule: Q01DX001 (ip), vehicle: other
  T/C: 98 % of control
endpoint: mean survival time, dose: 100.0 mg/kg/injection, schedule: Q01DX001 (ip), vehicle: carboxymethylcellulose (CMC)
  T/C: 172 % of control
endpoint: mean survival time, dose: 200.0 mg/kg/injection, schedule: Q01DX001 (ip), vehicle: carboxymethylcellulose (CMC)
  T/C: 170 % of control
endpoint: mean survival time, dose: 400.0 mg/kg/injection, schedule: Q01DX001 (ip), vehicle: carboxymethylcellulose (CMC)
  T/C: 307 % of control

## CCOC(=O)CCCSc1n[nH]c(=O)[nH]c1=O
endpoint: mean survival time, dose: 12.5 mg/kg/injection, schedule: Q01DX005 (ip), vehicle: distilled water + Tween-80
  T/C: 100 % of control
endpoint: mean survival time, dose: 25.0 mg/kg/injection, schedule: Q01DX005 (ip), vehicle: distilled water + Tween-80
  T/C: 102 % of control
endpoint: mean survival time, dose: 50.0 mg/kg/injection, schedule: Q01DX005 (ip), vehicle: distilled water + Tween-80
  T/C: 96 % of control
endpoint: mean survival time, dose: 100.0 mg/kg/injection, schedule: Q01DX005 (ip), vehicle: distilled water + Tween-80
  T/C: 91 % of control
endpoint: mean survival time, dose: 200.0 mg/kg/injection, schedule: Q01DX005 (ip), vehicle: distilled water + Tween-80
  T/C: 92 % of control

## CCCc1cc(CCC)n2nc(N)nc2n1
[1]
  T/C: 96 % of control
[2]
  T/C: 94 % of control
[3]
  T/C: 94 % of control

## O=[N+]([O-])c1cccc(/C=C/C=C/c2ccc(Cl)c(S(=O)(=O)F)c2)c1
[4]
  T/C: 100 % of control
[1]
  T/C: 100 % of control
[5]
  T/C: 94 % of control
[2]
  T/C: 88 % of control
[6]
  T/C: 97 % of control
[3]
  T/C: 90 % of control

## CN(C)/N=N\c1ncn(C2OC(CO)C(O)C2O)c1C(N)=O (centres undefined)
endpoint: mean survival time, dose: 100.0 mg/kg/injection, schedule: Q01DX005 (ip), vehicle: saline
  T/C: 123 % of control

## O=C1CC2CCCCN2C2=C1CCCC2 (centres undefined)
endpoint: mean survival time, dose: 100.0 mg/kg/injection, schedule: Q04DX003 (ip), vehicle: acetone
  T/C: 97 % of control

## CCOc1cc(N)nc2c1nnn2C1OC(CO)C(O)C1O (centres undefined)
endpoint: mean survival time, dose: 6.25 mg/kg/injection, schedule: Q01DX005 (ip), vehicle: other
  T/C: 107 % of control
endpoint: mean survival time, dose: 12.5 mg/kg/injection, schedule: Q01DX005 (ip), vehicle: other
  T/C: 98 % of control
endpoint: mean survival time, dose: 25.0 mg/kg/injection, schedule: Q01DX005 (ip), vehicle: other
  T/C: 101 % of control
endpoint: mean survival time, dose: 50.0 mg/kg/injection, schedule: Q01DX005 (ip), vehicle: other
  T/C: 98 % of control
endpoint: mean survival time, dose: 100.0 mg/kg/injection, schedule: Q01DX005 (ip), vehicle: other
  T/C: 101 % of control
endpoint: mean survival time, dose: 200.0 mg/kg/injection, schedule: Q01DX005 (ip), vehicle: other
  T/C: 98 % of control

## CC(=O)OC1CCC2(C)C(CCC3C2CCC2(C)C3CC3OC(CCC(C)O)C(C)C32)C1 (centres undefined)
endpoint: mean survival time, dose: 100.0 mg/kg/injection, schedule: Q04DX002 (ip), vehicle: saline with Tween-80
  T/C: 86 % of control

## CCCCNC(=O)CCC(=O)O
[4]
  T/C: 109 % of control
[1]
  T/C: 99 % of control
[5]
  T/C: 94 % of control
[2]
  T/C: 99 % of control
[6]
  T/C: 96 % of control
[3]
  T/C: 95 % of control

## O=C(O)C1CCOC1=O (centres undefined)
endpoint: mean survival time, dose: 50.0 mg/kg/injection, schedule: Q04DX002 (ip), vehicle: saline
  T/C: 107 % of control
endpoint: mean survival time, dose: 100.0 mg/kg/injection, schedule: Q04DX002 (ip), vehicle: saline
  T/C: 98 % of control
endpoint: mean survival time, dose: 200.0 mg/kg/injection, schedule: Q04DX002 (ip), vehicle: saline
  T/C: 98 % of control

## O=CNCCO
[4]
  T/C: 98 % of control
[7]
  T/C: 113 % of control
[5]
  T/C: 94 % of control
[8]
  T/C: 108 % of control
[6]
  T/C: 93 % of control
[9]
  T/C: 110 % of control

## CNC(=O)OCC1C2=C(C(=O)C(C)=C(N)C2=O)N2CC3C(N3C)C12OC (centres undefined)
endpoint: mean survival time, dose: 75.0 mg/kg/injection, schedule: Q01DX001 (ip), vehicle: carboxymethylcellulose (CMC)
  T/C: 113 % of control
endpoint: mean survival time, dose: 150.0 mg/kg/injection, schedule: Q01DX001 (ip), vehicle: carboxymethylcellulose (CMC)
  T/C: 113 % of control

## Cc1ccccc1OCC(=O)O
endpoint: mean survival time, dose: 50.0 mg/kg/injection, schedule: Q01DX009 (ip), vehicle: saline
  T/C: 104 % of control
endpoint: mean survival time, dose: 100.0 mg/kg/injection, schedule: Q01DX009 (ip), vehicle: saline
  T/C: 101 % of control
endpoint: mean survival time, dose: 200.0 mg/kg/injection, schedule: Q01DX009 (ip), vehicle: saline
  T/C: 93 % of control

## COC1=CCC23C(=O)C=CC(=O)C2(C1)C(=O)c1ccccc1C3=O (centres undefined)
endpoint: median survival time, dose: 3.12 mg/kg/injection, schedule: Q01DX009 (ip), vehicle: saline with Tween-80
  T/C: 102 % of control
endpoint: median survival time, dose: 6.25 mg/kg/injection, schedule: Q01DX009 (ip), vehicle: saline with Tween-80
  T/C: 105 % of control
endpoint: median survival time, dose: 12.5 mg/kg/injection, schedule: Q01DX009 (ip), vehicle: saline with Tween-80
  T/C: 112 % of control
endpoint: median survival time, dose: 25.0 mg/kg/injection, schedule: Q01DX009 (ip), vehicle: saline with Tween-80
  T/C: 104 % of control

## COc1cc(OC)c(/C=C/c2cc[n+](C)c3ccccc23)c(OC)c1
endpoint: mean survival time, dose: 1.56 mg/kg/injection, schedule: Q01DX009 (ip), vehicle: saline
  T/C: 106 % of control
endpoint: mean survival time, dose: 1.56 mg/kg/injection, schedule: Q04DX002 (ip), vehicle: saline
  T/C: 100 % of control
endpoint: mean survival time, dose: 3.13 mg/kg/injection, schedule: Q01DX009 (ip), vehicle: saline
  T/C: 109 % of control
endpoint: mean survival time, dose: 3.13 mg/kg/injection, schedule: Q04DX002 (ip), vehicle: saline
  T/C: 98 % of control
endpoint: mean survival time, dose: 6.25 mg/kg/injection, schedule: Q04DX002 (ip), vehicle: saline
  T/C: 88 % of control and 91 % of control

## Nc1ccccc1CO
[1]
  T/C: 100 % of control
[2]
  T/C: 95 % of control
[3]
  T/C: 95 % of control

## Clc1ccc(Nc2ccccc2)cc1
endpoint: mean survival time, dose: 100.0 mg/kg/injection, schedule: Q01DX001 (ip), vehicle: other
  T/C: 90 % of control
endpoint: mean survival time, dose: 200.0 mg/kg/injection, schedule: Q01DX001 (ip), vehicle: other
  T/C: 90 % of control
endpoint: mean survival time, dose: 400.0 mg/kg/injection, schedule: Q01DX001 (ip), vehicle: other
  T/C: 90 % of control

## C=CCN(CC=C)P(=O)(N(CC=C)CC=C)N1CC1
endpoint: mean survival time, dose: 11.0 mg/kg/injection, schedule: Q01DX015 (ip), vehicle: saline
  T/C: 151 % of control
endpoint: mean survival time, dose: 17.0 mg/kg/injection, schedule: Q01DX015 (ip), vehicle: saline
  T/C: 114 % of control

## CCCCCCCCCCCCCCCCC/C=C1\CC(=O)OC1=O
[1]
  T/C: 88 % of control

## CC1CC(C)(C)NC(CC2CCCCC2O)O1 (centres undefined)
[1]
  T/C: 94 % of control

## CN1CCCN(C)C1c1ccc(Cl)cc1
endpoint: mean survival time, dose: 6.25 mg/kg/injection, schedule: Q01DX009 (ip), vehicle: saline with Tween-80
  T/C: 98 % of control
endpoint: mean survival time, dose: 12.5 mg/kg/injection, schedule: Q01DX009 (ip), vehicle: saline with Tween-80
  T/C: 100 % of control
endpoint: mean survival time, dose: 25.0 mg/kg/injection, schedule: Q01DX009 (ip), vehicle: saline with Tween-80
  T/C: 94 % of control

## Cc1ccc(S(=O)(=O)/C=C/c2ccccc2)cc1
endpoint: mean survival time, dose: 100.0 mg/kg/injection, schedule: Q01DX001 (ip), vehicle: saline
  T/C: 103 % of control
[7]
  T/C: 96 % of control
endpoint: mean survival time, dose: 200.0 mg/kg/injection, schedule: Q01DX001 (ip), vehicle: saline
  T/C: 108 % of control
[8]
  T/C: 93 % of control
endpoint: mean survival time, dose: 400.0 mg/kg/injection, schedule: Q01DX001 (ip), vehicle: saline
  T/C: 100 % of control
[9]
  T/C: 87 % of control

## CC(=NCC(=O)O)c1ccccc1
endpoint: mean survival time, dose: 25.0 mg/kg/injection, schedule: Q04DX003 (ip), vehicle: saline
  T/C: 93 % of control
endpoint: mean survival time, dose: 50.0 mg/kg/injection, schedule: Q04DX003 (ip), vehicle: saline
  T/C: 100 % of control
[7]
  T/C: 100 % of control

## O=C1C=CC(=O)N1c1ccc(Br)cc1 (tested in a mixture with another compound)
endpoint: mean survival time, dose: 100.0 mg/kg/injection, schedule: Q01DX009 (ip), vehicle: acetone
  T/C: 98 % of control
endpoint: mean survival time, dose: 200.0 mg/kg/injection, schedule: Q01DX009 (ip), vehicle: acetone
  T/C: 95 % of control
